For assay [1], the system named is spiral ganglion neurons (SGNs). The experiment in a line: Delayed treatment (after two weeks of artificial perilymph following neomycin): eABR thresholds. Format: in vivo, guinea pigs. The settings on record: example 2, delayed treatment, 1 μM; from the fifth week; p<0.01 for DB. As to the method: The studies of examples 1 to 3 were performed on guinea pigs (250-500 g). All the animals were provided with a platinum-iridium electrode inserted into the cochlear in order to mimic a cochlear implant. The experiments were carried out in accordance with the protocol described by […] and collaborators (Shinohara et al., 2002, Proc. Nati. Acad. Sci. USA, 99, 1657-60). The procedure used was the same as in example 1, apart from the difference that, following the infusion of neomycin sulfate, the pumps were filled with artificial perilymph for two weeks. […] There was no eABR stimulation possible in the animals placed under the same conditions as defined above, but not treated by the products DA or DB.

Assay [2] relates to spiral ganglion neurons (SGNs). The experiment in a line: Quantification of the density of the SGNs in Rosenthal's canal and histological analysis of cochlea slices. Format: in vivo, guinea pigs. The procedure:
The studies of examples 1 to 3 were performed on guinea pigs (250-500 g). All the animals were provided with a platinum-iridium electrode inserted into the cochlear in order to mimic a cochlear implant. The experiments were carried out in accordance with the protocol described by Raphael and collaborators (Shinohara et al., 2002, Proc. Nati. Acad. Sci. USA, 99, 1657-60).
After the final measurement of the eABR threshold, the animals were heavily anaesthetised, intraperitoneally, using sodium pentobarbital (25 mg/kg) and infused intracardially with a saline solution (37° C.), which eliminates blood, then with a cold glutaraldehyde solution (2.5% in a 0.1 M phosphate buffer), which fixes the tissues. The temporal bone was removed, then the bulla was opened to reveal the cochlea. A small window was opened in the apex of the cochlea and the membrane of the round window so as to be able to delicately wash the cochlea with the glutaraldehyde solution. The cochlea was then decalcified in a solution of EDTA (0.1 M in the phosphate buffer) so as to make it possible to make cuts. After decalcification, the cochlea was dehydrated and enclosed in “plastic JB-4” (Polyscience Inc, Warrington, Pa.). The cochlea was sectioned into slices 4 μm thick. […] The six sections of Rosenthal's channel of six slices were analysed for each group of animals (Sigma Pro Scan) so as to count the spiral ganglion neurons. […]

The record followed here is patent publication US10092577B2, “Sterol derivatives for treating neurosensory hearing loss, and corresponding composition” (AFFICHEM, priority 2014, dated 2018).

Regarding `CC(C)CCC[C@@H](C)[C@H]1CC[C@H]2[C@@H]3C[C@@H](NCCc4c[nH]cn4)[C@@]4(O)C[C@@H](O)CC[C@]4(C)[C@H]3CC[C@]12C` [DA, 6β-[2-(1H-imidazol-4-yl)-ethylamino]-cholestane-3β,5α-diol], the “eABR thresholds, treated group versus control group (artificial perilymph)” value in assay [1] is recorded as “no longer a significant difference”.

Take `CC(C)CCC[C@@H](C)[C@H]1CC[C@H]2[C@@H]3C[C@@H](NCCCNCCCCN)[C@@]4(O)C[C@@H](O)CC[C@]4(C)[C@H]3CC[C@]12C` [DB, 6β-[3-(4-aminobutylamino)propylamino]-cholestane-3β,5α-diol]: in assay [2] (cochlea slices from the modiolus, axons not distinguishable in animals treated by AP), the “appearance of the axons of the SGNs (histological analysis, FIG. 5)” value was “thin and long”. The “eABR thresholds, treated group versus control group (artificial perilymph)” value in assay [1] is “significant difference”.

B1: GDNF: glia cell-line derived neurotrophic factor (protein, UniProt P39905 78-211, looked up)
Glial cell line-derived …: SPDKQMAVLPRRERNRQAAAANPENSRGKGRRGQRGKNRGCVLTAIHLNVTDLGLGYETKEELIFRYCSGSCDAAETTYDKILKNLSRNRRLVSDKVGQACCRPIAFDDDLSFLDDNLVYHILRKHSAKRCGCI
Consider B1, for which, in assay [2] (animals of example 1 (early treatment), GDNF 1 μg/ml, P<0.001), the “number of SGNs compared to the control group treated with the artificial perilymph” value was “significant difference”.
